The numbers were not newly measured in patent publication US6643591B1, “Use of computational and experimental data to model organic compound reactivity in cytochrome P450 mediated reactions and to optimize the design of pharmaceuticals” (University of Pittsburgh, priority 1998, dated 2003), which cites them from elsewhere.

In the series the test system is CYP1A2. As to conditions: O-deethylation favored; cited from earlier work.

Consider `CCOc1ccc2ccc(=O)oc2c1` [7-ethoxycoumarin], for which the “Energy difference between O-deethylation and aromatic hydroxylation pathways” value is listed as “about 1.8 kcal/mol”.
